Key:
Type in all cases: in vivo, human
[1] = system: patients with erythropoietic protoporphyria or X-linked porphyria; experiment: Time to occurrence of phototoxicity-related symptom in randomized double-blind clinical trial; details: for Least squares mean of the length of time (in minutes) before the first occurrence of a symptom in a day: week 16
Description: Compound A was administered to adult male and female patients with erythropoietic protoporphyria or X-linked porphyria for 16 weeks in a randomized double-blind clinical trial. As a primary endpoint for the clinical effect, the time to the first symptom due to exposure to light, including indirect sunlight as well as direct sunlight, during the period from 1 hour after sunrise to 1 hour before sunset was evaluated.
The baseline median of the erythrocyte protoporphyrin IX level was determined by measuring the protoporphyrin IX level in the fraction of erythrocytes in blood.
The median of the melanin density was determined h spectrophotometric measurement for the skin at the following six sites: the forehead, the left cheek, the inner side of the right upper arm, the inner side of the left forearm, the right side of the abdomen, and the left side of the hip.
The test in Example 2 was conducted in the Northern Hemisphere.

[2] = system: patients with erythropoietic protoporphyria or X-linked porphyria; experiment: Number of pain events recorded in electronic diary by patients during 16-week evaluation period of clinical trial; details: for reduction of pain events relative to the placebo administration group: 16 weeks; for Incidence rate of pain: N 24, 16-week evaluation period (placebo 7.5)
Description: Compound A was administered to adult male and female patients with erythropoietic protoporphyria or X-linked porphyria for 16 weeks in a randomized double-blind clinical trial. As another endpoint for the clinical effect, the number of pain events during the evaluation period of 16 weeks was recorded in an electronic diary by the patients themselves.
The incidence rates of pain during the evaluation period in the placebo administration group, the 100-mg compound A-administration group, and the 300-mg compound A-administration group were 7.5, 3.3, and 3.5, respectively.

[3] = system: patients with erythropoietic protoporphyria or X-linked porphyria; experiment: Health-related QOL: PGIC (Patient Global Impression of Change) score in clinical trial; details: 7-point scale, 7 = remarkable improvement (placebo 2.9), P value <0.001
Description: Compound A was administered to adult male and female patients with erythropoietic protoporphyria or X-linked porphyria for 16 weeks in a randomized double-blind clinical trial. As a secondary endpoint for the clinical effect, the PGIC (Patient Global Impression of Change) score, which is a health-related QOL, of each patient at week 16 was recorded by the patients themselves, More specifically, each patient was provided with a questionnaire for scoring the degree of improvement of the overall physical and mental health conditions on a 7-point scale.
The PGIC scores at week 16 in the placebo-administration group, the 100-mg compound A-administration group, and the 300-mg compound A-administration group were 2.9, 6.4, and 6.6, respectively.

COC[C@H]1CN(C(=O)[C@]2(F)CN(C3CCCC3)C[C@H]2c2ccc(OC)cc2)C[C@@H]1c1ccc(C(F)(F)F)cc1N1CCC(C(=O)O)CC1.O=P(O)(O)O [Compound A, cocrystal containing 1-{2-[(3S,4R)-1-{[(3R,4R)-1-cyclopentyl-3-fluoro-4-(4-methoxyphenyl)pyrrolidin-3-yl]carbonyl}-4-(methoxymethyl)pyrrolidin-3-yl]-5-(trifluoromethyl)phenyl}piperidine-4-carboxylic acid and phosphoric acid]
Least squares mean of the length of time (in minutes) before the first occurrence of a symptom in a day ([1]; 100 mg (N = 15) vs placebo (N = 15), subgroup with initial dosing in fall or winter, P value 0.029): 52.8 min
Least squares mean of the length of time (in minutes) before the first occurrence of a symptom in a day ([1]; 100 mg (N = 18) vs placebo (N = 20), subgroup with initial dosing in spring or summer, P value 0.073): 54.4 min
Least squares mean of the length of time (in minutes) before the first occurrence of a symptom in a day ([1]; 100 mg orally once daily (N = 33) vs placebo (N = 35), P value 0.008): 53.8 min
least squares mean of the time (in minutes) to the first occurrence of the symptom in a day ([1]; 100 mg, patient group with baseline median erythrocyte protoporphyrin IX level not less than 1980.50 mcg/dL, P value 0.020): 69.3 min
least squares mean of the time (in minutes) to the first occurrence of the symptom in a day ([1]; 100 mg, patient group with median melanin density less than 3.0915, P value 0.499): 23.2 min
least squares mean of the time (in minutes) to the first occurrence of the symptom in a day ([1]; 100 mg, patient group with median melanin density not less than 3.0915, P value <0.001): 85.0 min
Least squares mean of the length of time (in minutes) before the first occurrence of a symptom in a day ([1]; 300 mg (N = 16) vs placebo (N = 15), subgroup with initial dosing in fall or winter, P value <0.001): 95.8 min
Least squares mean of the length of time (in minutes) before the first occurrence of a symptom in a day ([1]; 300 mg (N = 18) vs placebo (N = 20), subgroup with initial dosing in spring or summer, P value 0.168): 42.2 min
Least squares mean of the length of time (in minutes) before the first occurrence of a symptom in a day ([1]; 300 mg orally once daily (N = 34) vs placebo (N = 35), P value 0.003): 62.5 min
least squares mean of the time (in minutes) to the first occurrence of the symptom in a day ([1]; 300 mg, patient group with baseline median erythrocyte protoporphyrin IX level not less than 1980.50 mcg/dL, P value 0.003): 82.6 min
least squares mean of the time (in minutes) to the first occurrence of the symptom in a day ([1]; 300 mg, patient group with median melanin density less than 3.0915, P value 0.051): 63.7 min
least squares mean of the time (in minutes) to the first occurrence of the symptom in a day ([1]; 300 mg, patient group with median melanin density not less than 3.0915, P value 0.002): 80.3 min
time to the first occurrence of the symptom in a day ([1]; patient group with baseline median erythrocyte protoporphyrin IX level less than 1980.50 mcg/dL): tended to be prolonged
reduction of pain events relative to the placebo administration group ([2]; 100 mg orally once daily): 60%
Incidence rate of pain ([2]; 100 mg orally once daily): 3.3
Incidence rate of pain, ratio to placebo ([2]; 100 mg orally once daily, P value 0.027): 0.4
reduction of pain events relative to the placebo administration group ([2]; 300 mg orally once daily): 50%
Incidence rate of pain ([2]; 300 mg orally once daily): 3.5
Incidence rate of pain, ratio to placebo ([2]; 300 mg orally once daily, P value 0.028): 0.5
Least squares mean of the PGIC scores ([3]; 100 mg orally once daily, N 25, week 16): 6.4
Least squares mean of the PGIC scores ([3]; 300 mg orally once daily, N 24, week 16): 6.6

Reference: patent US12667563B2, “Prophylactic or therapeutic agent for porphyria” (TANABE PHARMA CORPORATION, priority 2020, dated 2026)
